According to patent US10006080B2, “High-selectivity contact activation inhibitor based on infestin-4” (OBSCHESTVO S OGRANICHENNOY OTVETSTVENNOSTYU …, priority 2013, dated 2018):

B1: corn trypsin inhibitor (other, UniProt P01088 29-138, looked up)
chain: SAGTSCVPGWAIPHNPLPSCRWYVTSRTCGIGPRLPWPELKRRCCRELADIPAYCRCTALSILMDGAIPPGPDAQLEGRLEDLPGCPREVQRGFAATLVTEAECNLATIS
notes: Isolated from corn; also called CTI

Assays:
[1] = system: contact-activated coagulation; assay: APTT test in platelet free plasma of a healthy donor (kaolin-cephalin activation); assay type: biochemical, human; conditions: for concentration at which the APTT increases nearly four-fold / concentration leading to 2.5-fold increase of APTT: normal plasma
Procedure: The assessment of activity of the polypeptide comprising the sequence of an infestin-4 mutant MutB by its inhibition of the contact-activated coagulation shall be considered further with a reference to FIG. 1. Native infestin-4 and mutants MutB and Mut15 were added into 3 separate samples of platelet free plasma (PFP) of a healthy donor, with subsequent measuring time of contact-activated clotting in the APTT test.
Blood plasma from healthy donors was processed according to standard protocols of blood collection for coagulation assays (Collection, Transport, and Processing of Blood Specimens for Testing Plasma-Based Coagulation Assays and Molecular Hemostasis Assays; Approved Guideline Fifth Edition by Clinical and Laboratory Standards Institute (CLSI) H21-A5 Vol. 28 No. 5). 0.38% sodium citrate was added into blood to block the calcium ions.
The APTT test was administered using the reagent kits “Coagulo-test” (Scientific-production association Renam, Moscow, Russia) and different concentrations of the following contact activation inhibitors: native infestin-4, MutB, and Mut15. To do that, 50 microliters of blood plasma from a healthy donor were mixed with 5.6 microliters of a 10× solution of different inhibitor concentrations and incubated for 15 minutes at 37° C. Then, according to the “Coagulo-test” manual, 25 microliters of the mixture were transferred into the cuvette of the coagulometer Helena-C2, with addition of 25 microliters of kaolin-cephalin mixture activating fXII in blood plasma. After incubation at 37° C. for 3 minutes, 25 microliters of the calcium chloride solution in the initial concentration of 25 mM was added, and the time of fibrin clot formation in the coagulometer cuvette was determined photometrically.
APTT dependences on concentrations of native infestin-4, MutB and Mut15 obtained in the same way as in Example 1, are shown on FIG. 1.

hypercoagulant PFP = assay: Thrombodynamics analyzer T-2, clots far from the activator in hypercoagulant PFP (100 pM fXIa added); assay type: biochemical, human; conditions: MutB 20 μM, CTI 15 μM; for time of appearance of clots far from the activator after activation: hypercoagulant PFP, nearly 5-8 minutes without inhibitor
Procedure: To assess the influence of the said contact activation inhibitors on appearance, far from the activator, of clots provoked by hypercoagulation, but not by contact activation of the sample by the cuvette walls, we added MutB (20 μM) and CTI (15 μM) into 2 separate samples of hypercoagulant PFP. Hypercoagulant PFP was obtained from normal frozen-thawed PFP by adding 100 pM of fXIa.
The influence of a polypeptide consisting of the sequence of an infestin-4 mutant MutB on the growth of fibrin clots in the samples of hypocoagulant, normal, and hypercoagulant blood plasma was studied using the laboratory diagnostic system «Thrombodynamics analyzer T-2» and the «Diagnostic kit for thrombodynamics investigation in blood plasma» (HemaCore, Moscow, Russia) according to the manual to the «Diagnostic kit for thrombodynamics investigation in blood plasma» (HemaCore, Moscow, Russia). Here, the said polypeptide was preliminarily proteolytically cleaved and chromatographically purified from thioredoxin (Trx). 15 minutes before the assay, the measuring cuvette, insert-activator with immobilized TF, and the reagents were held at 37° C. Standard investigation temperature was of 37° C. 15 minutes before the assay, 120 microliters of plasma were mixed with the investigated substances, MutB or CTI, for comparison, and put into a microtube. After mixing of the plasma with the substances, the tube with the plasma was put into a thermostat at 37° C. for 15 minutes. Immediately before the assay, the plasma was re-calcified: 120 microliters of the mixture of plasma and substances were put into a microtube with Reagent II (lyophilized solution of calcium acetate with an additive), and mixed up to complete Reagent II dilution. Then, 120 microliters of the mixture with Reagent II from the microtube was immediately transferred into the measuring cuvette. After that, the insert-activator was carefully inserted into the cuvette so that the surface with immobilized tissue factor would contact the plasma. Immediately after the contact of the coagulation activator with the blood plasma, the photography of the process of fibrin clot growth in plasma within the cuvette started. The cuvette-activator was a plate with the coagulation activator—tissue factor—immobilized at the low end surface (Fadeeva et al. 2010, Biochemistry (Moscow) 75:827-838). The automatic calculation of the assay results was performed using the software (user manual «Software for the laboratory diagnostic system «Thrombodynamics analyzer T-2», HemaCore, Moscow, Russia).

| Molecule | APTT ([1]; 10 μM inhibitor in PFP, 45 sec without inhibitor) | activity in blood plasma in comparison to Mut15 ([1]; APTT dose-dependence) | activity in blood plasma in comparison with Mut15 and native infestin-4 ([1]; APTT dose-dependence, FIG. 1) | concentration at which the APTT increases nearly four-fold [1] | concentration leading to 2.5-fold increase of APTT [1] | influence on appearance of clots far from the activator in hypercoagulant plasma (hypercoagulant PFP) | time of appearance of clots far from the activator after activation (hypercoagulant PFP) |
| --- | --- | --- | --- | --- | --- | --- | --- |
| MutB: polypeptide comprising the sequence of infestin-4 mutant MutB (SEQ ID NO: 1), inhibition loop TRNFVA; high-selectivity fXIIa inhibitor (EVRNPCACTRNFVAVCGSDGKTYGNPCMLNCAAQTKVPGLKLVHEGRCQRSNVEQF; Infestin-4 mutant MutB) | 120 s | nearly twofold | increased activity | 20 µM | 10 µM | does not influence appearance of clots far from the activator | 5 to 8 min |
| B1 | – | – | – | 15 µM | 5 µM | delays appearance of clots far from the activator | 10 to 15 min |
